Like-named read-outs stand apart in the source and are kept apart here.
Key:
human 5-HT1A receptor = molecular target: T1, human 5-HT1A receptor (Homo sapiens, UniProt P08908); test: Human 5-HT1A radioligand binding assay ([3H]-8-Hydroxy-DPAT); parameters: expressed in transfected cells; host or cells: HTR1A&Gα15-CHO
T1 sequence (P08908 1-422): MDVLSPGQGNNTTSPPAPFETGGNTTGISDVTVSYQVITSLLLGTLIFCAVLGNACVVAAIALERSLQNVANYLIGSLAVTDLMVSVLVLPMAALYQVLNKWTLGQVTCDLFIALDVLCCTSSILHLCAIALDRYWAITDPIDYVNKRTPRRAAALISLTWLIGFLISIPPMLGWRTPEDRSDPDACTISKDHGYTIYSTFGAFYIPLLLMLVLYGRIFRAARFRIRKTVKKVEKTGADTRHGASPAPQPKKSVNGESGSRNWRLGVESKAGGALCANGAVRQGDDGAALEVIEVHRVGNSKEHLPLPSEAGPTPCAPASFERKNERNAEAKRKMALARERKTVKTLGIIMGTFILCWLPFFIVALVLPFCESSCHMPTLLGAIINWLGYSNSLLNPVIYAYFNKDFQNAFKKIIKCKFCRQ
Protocol: The objective of this study was to evaluate the binding properties of test compounds on 5-hydroxytryptamine receptor 1A (5-HT1A).
1. The assay buffer was prepared following Table 21 below.
2. 8 doses of reference and test compounds were prepared starting from 10 mM stock solution as required by 5-fold serial dilutions with 100% (v/v) DMSO.
3. UniFilter-96 GF/B plate was pretreated: • i. 50 μl/well of 0.5% (v/v) PEI was added to UniFilter-96 G F/B plates. The plates were sealed and incubated at 4° C. for 3 hrs. • ii. After incubation, the plates were washed 3 times with ice-cold wash buffer (50 mM Tris, pH7.4).
4. Assay plate was prepared: • i. Cell membrane was diluted with assay buffer and 100 μl/well was added to 96 round well plates to reach a concentration of 20 μg/well. • ii. 8 concentrations of reference or test compounds were prepared and 50 μl/well was added to 96 round deep well plates. • iii. [3H]-8-Hydroxy-DPAT was diluted with assay buffer to 2 nM (4×final concentration) and 50 μl/well was added to 96 round well plates.
5. The plate was centrifuged at 1000 rpm for 30 secs and then agitated at 600 rpm, R.T. for 5 min.
6. The plates were sealed, and the plate was incubated at 27° C. for 90 min.
7. The incubation was stopped by vacuum filtration onto GF/B filter plates followed by 4 times washing with ice-cold wash buffer (50 mM Tris, pH7.4).
9. The filter plates were sealed and 40 μl/well of scintillation cocktail was added.
10. The plate was read by using a Microbeta^2 microplate counter.
1. For reference and test compounds, the results were expressed as % Inhibition, using the normalization equation: N=100-100x(U-C2)/(C1-C2), where U is the unknown value, C1 is the average of high controls, and C2 is the average of low controls.
2. The IC50 was determined by fitting percentage of inhibition as a […] of compound concentrations with Hill equation using XLfit.
The objective of this study was to evaluate the binding properties of test compounds on 5-hydroxytryptamine receptor 1A (5-HTA).
1. The assay buffer was prepared following Table 50 below.
3. UniFilter-96 G FIB plate was pretreated: • i. 50 μl/well of 0.5% (v/v) PEI was added to UniFilter-96 G FIB plates. The plates were sealed and incubated at 4° C. for 3 hrs. • ii. After incubation, the plates were washed 3 times with ice-cold wash buffer (50 mM Tris, pH7.4).
6. The plates were sealed and the plate was incubated at 27° C. for 90 min.

5-HT2B receptor = 5-HT2B receptor (Homo sapiens, UniProt P41595); test: Human 5-HT2B radioligand binding assay ([3H]-LSD); parameters: host or cells: cell membrane, dosed as 1 unit/well
5-HT2B receptor, sequence (P41595 whole entry): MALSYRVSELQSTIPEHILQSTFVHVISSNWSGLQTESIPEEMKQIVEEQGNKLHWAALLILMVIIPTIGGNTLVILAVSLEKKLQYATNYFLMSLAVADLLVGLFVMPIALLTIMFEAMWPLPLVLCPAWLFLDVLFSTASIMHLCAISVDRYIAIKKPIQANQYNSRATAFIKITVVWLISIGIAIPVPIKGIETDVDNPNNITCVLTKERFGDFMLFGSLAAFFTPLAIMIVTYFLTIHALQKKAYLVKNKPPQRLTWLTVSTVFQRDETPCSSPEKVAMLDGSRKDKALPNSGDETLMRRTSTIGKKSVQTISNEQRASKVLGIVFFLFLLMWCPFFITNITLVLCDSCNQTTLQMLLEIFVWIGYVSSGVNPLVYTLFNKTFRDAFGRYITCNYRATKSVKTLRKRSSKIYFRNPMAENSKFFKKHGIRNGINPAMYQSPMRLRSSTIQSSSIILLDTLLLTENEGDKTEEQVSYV
Protocol: The objective of this study was to evaluate the binding properties of test compounds on 5-HT2B.
1) The assay buffer was prepared following Table 25-below.
2) Eight doses of reference and test compounds starting from 10 mM stock solution as requested by 5-fold serial dilutions with 100% (v/v) DMSO.
3) UniFilter-96 GF/B plate was pretreated: • a. 50 μl/well of 0.5% (v/v) PEI to UniFilter-96 G F/B plates. The plates were sealed and incubated at 4° C. for 3 hrs. • b. After incubation, the plates were washed 3 times with ice-cold wash buffer (50 mM Tris, pH7.4).
4) Assay plate preparation: • a. Cell membrane was diluted with assay buffer and 330 μl/well added to 96 round deep well plates to reach a concentration of 1 unit/well. • b. Eight concentrations of reference or test compounds were prepared and 110 μl/well added to 96 round deep well plates. • c. [3H]-LSD was diluted with assay buffer to 5 nM (5×final concentration) and 110 μl/well was added to 96 round deep well plates.
5) The plate was centrifuged at 1000 rpm for 30 secs and then agitate at 600 rpm, R.T. for 5 min.
6) The plates were sealed and incubated at 37° C. for 90 min.
7) The incubation was stopped by vacuum filtration onto GF/B filter plates followed by 4 times washing with ice-cold wash buffer (50 mM Tris, pH7.4).
9) The filter plates were sealed and 40 μl/well of scintillation cocktail was added.
10) The plate was read using a Microbeta2 microplate counter.
(§1) For reference and test compounds, the results are expressed as % Inhibition, using the normalization equation: N=100-100x(U-C2)/(C1-C2), where U is the unknown value, Cl is the average of high controls, and C2 is the average of low controls. The IC50 is determined by fitting percentage of inhibition as a function of compound concentrations with Hill equation using XLfit.
1) The assay buffer was prepared following Table 54 below.
7) The incubation was stopped by vacuum filtration onto G F/B filter plates followed by 4 times washing with ice-cold wash buffer (50 mM Tris, pH7.4).
as §1, with “N=100−100×(U−C2)/(C1−C2),” for “N=100-100x(U-C2)/(C1-C2),”, “C1” for “Cl”

## COc1ccc2[nH]cc(CCN3CC[C@@H](OC)C3)c2c1 [(R) I-66, (R)-5-methoxy-3-(2-(3-methoxypyrrolidin-1-yl)ethyl)-1H-indole]
Human 5-HT1A receptor
  IC50: 22 nM

## COc1ccc2[nH]cc(CCN3CC[C@@H](OC(F)F)C3)c2c1 [(R) I-67, (R)-3-(2-(3-(Difluoromethoxy)pyrrolidin-1-yl)ethyl)-5-methoxy-1H-indole]
Human 5-HT1A receptor
  IC50: 22 nM

## COc1ccc2[nH]cc(CCN3CC[C@H](OC(F)F)C3)c2c1 [(S) I-67, (S)-3-(2-(3-(Difluoromethoxy)pyrrolidin-1-yl)ethyl)-5-methoxy-1H-indole]
Human 5-HT1A receptor
  IC50: 5 nM

## [2H]C([2H])([2H])N(CCc1c[nH]c2ccc(SC)cc12)C([2H])([2H])[2H] [Compound I-1, N,N-Bis(methyl-d3)-2-(5-(methylthio)-1H-indol-3-yl)ethan-1-amine]
5-HT2B receptor
  IC50: 74.5 nM
  Ki: 38.6 nM
Human 5-HT1A receptor
  IC50: 3.9 nM

## CCN(CC)CCc1c[nH]c2ccc(SC)cc12 [Compound I-12, N,N-Diethyl-2-(5-(methylthio)-1H-indol-3-yl)ethan-1-amine]
5-HT2B receptor
  IC50: 451 nM
  Ki: 233 nM
Human 5-HT1A receptor
  IC50: 2 nM

## CCN(C)CCc1c[nH]c2ccc(SC)cc12 [Compound I-13, N-Ethyl-N-methyl-2-(5-(methylthio)-1H-indol-3-yl)ethan-1-amine]
5-HT2B receptor
  IC50: 64 nM
  Ki: 33.1 nM
Human 5-HT1A receptor
  IC50: 2 nM

## CSc1ccc2[nH]cc(CCN(C(C)C)C(C)C)c2c1 [Compound I-17, N-Isopropyl-N-(2-(5-(methylthio)-1H-indol-3-yl)ethyl)propan-2-amine]
5-HT2B receptor
  IC50: 221 nM
  Ki: 114 nM
Human 5-HT1A receptor
  IC50: 46 nM

## CSc1ccc2[nH]cc(CCN(C)C(C)C)c2c1 [Compound I-19, N-Methyl-N-(2-(5-(methylthio)-1H-indol-3-yl)ethyl)propan-2-amine]
5-HT2B receptor
  IC50: 276 nM
  Ki: 143 nM
Human 5-HT1A receptor
  IC50: 17 nM

## COc1ccc2[nH]cc(CCN(C)CCOC(F)F)c2c1 [Compound I-71, 2-(Difluoromethoxy)-N-(2-(5-methoxy-1H-indol-3-yl)ethyl)-N-methylethan-1-amine]
5-HT2B receptor; [3H]-LSD displacement (Table 55), read-out: 5-HT2B, IC50
  IC50: 171 nM
5-HT2B receptor; [3H]-LSD displacement (Table 55), read-out: 5-HT2B, Ki
  Ki: 88.6 nM
Human 5-HT1A receptor; [3H]-8-Hydroxy-DPAT displacement (Table 51), read-out: h5-HT1A, IC50
  IC50: 51 nM

## CN(C)CCc1c[nH]c2ccc(OCCOC(F)F)cc12 [Compound I-128, 2-(5-(2-(Difluoromethoxy)ethoxy)-1H-indol-3-yl)-N,N-dimethylethan-1-amine]
Human 5-HT1A receptor
  IC50: 87 nM

Source: patent US20250257034A1, “INDOLE DERIVATIVES AS SEROTONERGIC AGENTS USEFUL FOR THE TREATMENT OF DISORDERS RELATED THERETO” (priority 2023, published 2025)
